# Source: patent publication US8071637B2, “Dithiolopyrrolones compounds and their therapeutic applications” (Welichem Biotech Inc., priority 2006, dated 2011)
# Experiments:
# [1] = system: mouse peripheral white blood cells; assay: Activity of increasing white blood cells (WBC) in mice; type: in vivo, CDF1 male mice; conditions: peripheral blood on day 7
# Protocol: This activity was determined using CDF1 male mice (18-20 g): mice were grouped as: vehicle, 30 mg/kg cyclophosphamide (CTX), 15 mg/kg test compounds. The mice were treated by IP injection: test compounds on day 1, 3, and 5 for three doses, vehicle and CTX daily for 6 days. On day 7, peripheral blood samples were collected and blood cells counted.
# white blood cells = assay: Therapeutical effect on white blood cells of mice pretreated with CTX; type: in vivo, CDF1 male mice; conditions: for number of white blood cell account, Day 6: Day 6: after CTX 30 mg/kg IP daily for 6 days, before therapeutical treatment started on 7th day
# Protocol: This activity was determined using CDF1 male mice: mice were grouped and treated with daily CTX IP injection of 30 mg/kg for 6 days. […] Positive control group was treated with daily subcutaneously injection of 20 μg/kg G-CSF. Peripheral blood samples were collected and blood cells counted on the 10th day.
# [2] = system: white blood cells of beagle dog; assay: Activity of increasing WBC in dogs; type: in vivo; conditions: for WBC: blood count day 5; for % increase (compared with the control): day 5
# Protocol: The effect of the test compounds was tested on beagle dog with a daily IV injection at different doses for four days. The blood account was done at day 5.
Molecule,WBC ([1]; CTX 30 mg/kg IP daily for 6 days),"number of white blood cell account, Day 6 (white blood cells)","number of white blood cell account, Day 10 (white blood cells; Day 10: CTX 30 mg/kg IP daily for 6 days only)","WBC ([1]; test compound 15 mg/kg IP on day 1, 3 and 5)",WBC ([2]; 1 mg/kg daily IV for four days),% increase (compared with the control) ([2]; 1 mg/kg daily IV for four days),WBC ([2]; 2 mg/kg daily IV for four days),% increase (compared with the control) ([2]; 2 mg/kg daily IV for four days),WBC ([2]; 4 mg/kg daily IV for four days),% increase (compared with the control) ([2]; 4 mg/kg daily IV for four days),WBC ([2]; 8 mg/kg daily IV for four days),% increase (compared with the control) ([2]; 8 mg/kg daily IV for four days),"effect on white blood accounts in dogs (in words) ([2]; daily IV, 1-8 mg/kg, four days)","number of white blood cell account, Day 10 (white blood cells; Day 10: CTX 30 mg/kg x 6 days, then test compound 15 mg/kg daily for 3 days from day 7)","number of white blood cell account, Day 10 (white blood cells; Day 10: CTX 30 mg/kg x 6 days, then G-CSF 20 μg/kg daily subcutaneously (positive control))"
"O=P1(N(CCCl)CCCl)NCCCO1 (centres unmarked) [CTX, cyclophosphamide, reference compound]",1.41 ± 0.50 ×10^9/L,1.5 ± 0.2 ×10^9/L,4.8 ± 0.8 ×10^9/L,–,–,–,–,–,–,–,–,–,–,–,–
"COc1ccc(-n2c3cssc-3c(NC(=O)c3cc(C(F)(F)F)cc(C(F)(F)F)c3)c2=O)c(OC)c1 [compound 0058, N-[4-(2,4-Dimethoxy-phenyl)-5-oxo-4,5-dihydro-[1,2]dithiolo[4,3-b]pyrrol-6-yl]-3,5-bis-trifluoromethyl-benzamide]",–,2.1 ± 0.8 ×10^9/L,–,23.9 ± 8.9 ×10^9/L,13.0 ± 2.0 ×10^9/L,15.9%,16.8 ± 1.0 ×10^9/L,48.2%,21.5 ± 4.1 ×10^9/L,90.3%,28.8 ± 7.0 ×10^9/L,154.9%,significantly increased white blood accounts,16.2 ± 2.1 ×10^9/L,–
"G-CSF: granulocyte-colony stimulating factor, protein that selectively stimulates production of white blood cells; positive control (protein, chains of the INN, looked up, N-terminal methionine, non-glycosylated) MTPLGPASSLPQSFLLKCLEQVRKIQGDGAALQEKLCATYKLCHPEELVLLGHSLGIPWAPLSSCPSQALQLAGCLSQLHSGLFLYQGLLQALEGISPELGPTLDTLQLDVADFATTIWQQMEELGMAPALQPTQGAMPAFASAFQRRAGGVLVASHLQSFLEVSYRVLRHLAQP",–,1.8 ± 0.7 ×10^9/L,–,–,–,–,–,–,–,–,–,–,–,–,14.7 ± 1.8 ×10^9/L
